Consider two compounds from patent publication US9463213B2, “Use of degarelix in the treatment of endometriosis and related diseases” (priority 2012, dated 2016).

The subject of assay [1] is women with recurrent endometriosis after surgery. Kind of assay: Example 1: clinical comparison of single-dose degarelix with monthly leuprolide acetate in recurrent endometriosis. In kind it is in vivo. The note with it: for Disappearance of pain: degarelix acetate 80 mg single s.c. injection vs leuprolide acetate 3.75 mg s.c. monthly, 15 patients per group; for Disappearance of symptoms at the end of treatment / Recurrence six months after the end of treatment / CA-125 after 2 months / CA-125 at the end of treatment: degarelix acetate 80 mg single s.c. vs leuprolide acetate 3.75 mg s.c. monthly; for CA-125 after 2 months / CA-125 at the end of treatment: plasma. On the procedure:
In this experiment the use of degarelix was studied, administered in a dose of 80 mg in a single infusion, with an effect which lasted for at least 4 months (period of amenorrhea and hypoestrogenism), comparing this with the effect of treatment with leuprolide acetate GnRH-agonist administered in a dose of 3.75 mg per month for at least 6 months in women with recurrent endometriosis after surgery and post-surgery treatment with estro-progestins. 30 women divided into two groups of 15 patients each, with recurrent endometriosis after previous surgery for endometriotic cysts, in whom new ovarian cysts, pelvic pain and a rise in plasma CA125 values occurred, were included in the study. One group of patients was treated with 80 mg degarelix acetate in a single subcutaneous injection (Firmagon 80 mg, company Ferring) on the first day of the menstrual cycle, while the other group was treated with leuprolide acetate (Enantone 3.75, Takeda) in a dose of 3.75 mg subcutaneously every month for four months. Both the groups were monitored for FSH, LH, estradiol, androstenedione, dehydroandrostenedione (DEA) and CA125, with plasma doses every fifteen days starting from the day following administration of the drug. Pelvic pain levels experienced by the patients during treatment and during the six months following suspension of the treatment were also evaluated using a “Visual Analogue Scale” (VAS) in which the patient expressed the level of pain experienced on a 10 cm scale.

In assay [2] the test system is patients suffering from endometriosis with bilateral ovarian cysts. Kind of assay: Example 2: degarelix before assisted reproduction in patients with bilateral endometriotic ovarian cysts. In kind it is in vivo. On the procedure:
In this experiment, 12 patients suffering from endometriosis with the presence of bilateral ovarian cysts who wished to receive a cycle of assisted reproduction underwent, prior to undergoing controlled ovarian hyperstimulation, treatment with 80 mg degarelix acetate in a single administration 4 months before the assisted reproduction cycle, in order to evaluate the efficacy of this treatment on the reduction and/or disappearance of the ovarian cysts without performing surgery. 12 patients with bilateral endometriotic cysts (cysts larger than 3 cm) and high plasma CA125 (over 60 IU/ml) were selected. 80 mg degarelix acetate (Firmagon 80 mg) was injected into the patients on the first day of the cycle and the patients were then monitored for FSH, LH and estradiol values every 20 days, with an echography check to evaluate the dimensions of the cysts.

A further assay has as its system healthy women volunteers. The note with it: injection of 2.5 mg; cited from earlier work.
Assay [3] concerns patients with severe endometriosis. The note with it: 80 mg monthly for three months; cited from earlier work.
[4] abbreviates: 80 mg single dose vs leuprolide acetate, P<0.01.

Turning to `CCNC(=O)[C@@H]1CCCN1C(=O)[C@H](CCCNC(=N)N)NC(=O)[C@H](CC(C)C)NC(=O)[C@@H](CC(C)C)NC(=O)[C@H](Cc1ccc(O)cc1)NC(=O)[C@H](CO)NC(=O)[C@H](Cc1c[nH]c2ccccc12)NC(=O)[C@H](Cc1c[nH]cn1)NC(=O)[C@@H]1CCC(=O)N1` [Leuprolide acetate, leuprolide acetate], in assay [1], the Disappearance of pain worked out at 3.8 ± 0.8, the “Disappearance of symptoms at the end of treatment” value is reported as 60.0%, the “Recurrence six months after the end of treatment” value came out at 33.3% and the “CA-125 after 2 months” value was found to be 52.6 ± 31.5. For the same compound, in assay [1], the “CA-125 at the end of treatment” value was determined as 34.0 ± 12.7.

Regarding degarelix acetate, in assay [1] (80 mg in a single infusion), the “Duration of effect (period of amenorrhea and hypoestrogenism)” value is “at least 4 months”. Moreover, the “Control of painful symptoms (VAS) compared with GnRH agonist (FIG. 5)” value in assay [1] (80 mg single dose vs leuprolide acetate) is on record as “better control of painful symptoms”. Further, in assay [1] (setting [4]), the “Estradiol and androgen levels compared with GnRH agonist (FIGS. 2-4)” value is given as “lower levels of estradiol”; the “Suppression of LH and FSH compared with GnRH agonist (FIG. 1)” value was “More rapid and stable suppression of LH and FSH”. Further, in assay [1], the Disappearance of pain is 1.4 ± 0.3, the “Disappearance of symptoms at the end of treatment” value turned out to be 93.3%, the “Recurrence six months after the end of treatment” value is 6.6% and the “CA-125 after 2 months” value amounted to 32.4 ± 21.4. The “CA-125 at the end of treatment” value in assay [1] is reported as 12.6 ± 10.1. The “Duration of stable suppression of FSH, LH, estradiol and androgen levels” value in assay [1] (single administration of 80 mg) worked out at 4 months. For the same compound, the “Volume of the endometriotic cysts” value in assay [2] (80 mg single administration, 3 months after treatment, echography) is reported as “decreased significantly”. Moreover, the “Levels of FSH, LH and estradiol 3 months after treatment (FIG. 6)” value in assay [2] (80 mg single administration, 12 patients) is “low levels”. Further, the “Patients with complete disappearance of endometriotic cysts” value in assay [2] (80 mg single administration, of 12 patients) is reported as “at least 4 patients”. This compound had a Pregnancy achieved in assay [2] (after 80 mg single administration and assisted reproduction cycle, of 12 patients) of 5 cases. In assay [2] (after 80 mg single administration, all patients), the “Recurrence of endometriotic cysts during ovarian stimulation with oocyte sampling” value is recorded as “without showing any recurrence of endometriotic cysts”. Moreover, in the assay on healthy women volunteers, the “Effect on LH and FSH release” value is “immediate suppression of LH and FSH release”; the “Time required for LH and FSH to return to base levels” value is given as “approximately 7 days”. The “Effect on pain and endometriosis recurrence” value in assay [3] was “reduction of pain and endometriosis recurrence”.
